These results are taken from PubChem BioAssay AID977614 (Broad Institute, 2014).

Active and inactive are the calls of the source.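 The calls were made as follows: active = parasite count per well reduced by over 3 SD from the mean, with host cell number above 80% of untreated; inactive = the rest.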 Bounds are passed on as bounds.

The subject of the assay is L. donovani amastigotes in THP-1 macrophages, DAPI imaging, 72 h. Description: antileishmanial activity in infected macrophages – imaging, THP-1 host macrophages, single concentration (AID 977614).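 Also: signal is the parasite per host cell ratio from DAPI stained kinetoplasts and nuclei.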

Consider `CCC(=O)N1[C@@H](CO)[C@@H]2c3ccccc3N(S(=O)(=O)c3ccc(F)cc3)C[C@@H]21`, for which the AC50 (as a rule, the concentration at which the activity in the assay is half-maximal) was > 10 µM (inactive).

With `CCCNC(=O)N1[C@H](CNC(=O)c2cccc(F)c2)[C@@H](c2ccccc2)[C@@H]1CO`, the AC50 is > 10 µM (inactive).

As to `CN1[C@H](CO)[C@@H]2c3ccccc3N(C(=O)Nc3cc(F)ccc3F)C[C@@H]21`, the AC50 was > 10 µM (inactive).

Take `C[C@H]1CN([C@@H](C)CO)C(=O)CCCn2nncc2CO[C@H]1CN(C)C(=O)Nc1ccccc1C(F)(F)F`: the AC50 was > 10 µM (inactive).

Consider `C/C=C/c1ccc([C@H]2[C@H](CO)N(C(C)=O)[C@H]2CN(CC)C(=O)CN(C)C)cc1`, for which the AC50 was > 10 µM (inactive).

Regarding `CCCC(=O)N1C[C@@H]2[C@H](c3ccccc31)[C@H](CO)N2Cc1cocn1`, the AC50 was > 10 µM (inactive).

As to `CNC[C@H]1OCc2cnnn2CCCC(=O)N([C@H](C)CO)C[C@@H]1C`, the AC50 is > 10 µM (inactive).

As for `CCCNC(=O)N1[C@@H]2CN(C(=O)c3ccncc3)c3ccccc3[C@@H]2[C@@H]1CO`, the AC50 is > 10 µM (inactive).

With `C[C@@H]1CN([C@H](C)CO)C(=O)CCCn2nncc2CO[C@@H]1CN(C)S(=O)(=O)c1ccc(Oc2ccccc2)nc1`, the AC50 was > 10 µM (inactive).

On to `COc1ccc(CN2[C@H](CO)[C@@H]3c4ccccc4NC[C@@H]32)cc1`, for which the AC50 is > 10 µM (inactive).

For the compound `C[C@H]1CN([C@@H](C)CO)C(=O)CCCn2nncc2CO[C@@H]1CN(C)S(=O)(=O)c1ccc2c(c1)OCCCO2`, the AC50 was > 10 µM (inactive).

`COc1ccccc1C(=O)N1C[C@@H]2[C@H](c3ccccc31)[C@H](CO)N2CC1CCCC1`: the AC50 was > 10 µM (inactive).

Consider `O=C(Nc1ccccc1F)N1C[C@H]2[C@@H](c3ccccc31)[C@@H](CO)N2C(=O)Cc1cccnc1`, for which the AC50 was > 10 µM (inactive).

On to `Cc1noc(C)c1NC(=O)N(C)C[C@@H]1OCc2cnnn2CCCC(=O)N([C@@H](C)CO)C[C@H]1C`, for which the AC50 is > 10 µM (inactive).

Turning to `O=C(c1ccccn1)N1C[C@@H]2[C@H](c3ccccc31)[C@H](CO)N2C(=O)Nc1ccccc1Cl`, the AC50 is > 10 µM (inactive).

As to `Cc1noc(C)c1NC(=O)N(C)C[C@H]1OCc2cn(nn2)CCCC(=O)N([C@@H](C)CO)C[C@@H]1C`, the AC50 is > 10 µM (inactive).

Take `C/C=C/c1ccc([C@@H]2[C@@H](CO)N(C(C)=O)[C@@H]2CN(CC)C(=O)CN(C)C)cc1`: the AC50 is > 10 µM (inactive).

As for `O=C(NC[C@@H]1[C@@H](c2ccccc2)[C@H](CO)N1Cc1ccccn1)C1CCCC1`, the AC50 is > 10 µM (inactive).

For `O=C(CN1CCOCC1)NC[C@@H]1N[C@@H](CO)[C@@H]1c1ccc(-c2ccccc2)cc1`, the AC50 was > 10 µM (inactive).

Regarding `C[C@@H]1CN([C@@H](C)CO)C(=O)CCCn2cc(nn2)CO[C@@H]1CN(C)S(=O)(=O)c1ccc(-n2cccn2)cc1`, the AC50 was > 10 µM (inactive).

Regarding `COc1ccccc1S(=O)(=O)N(C)C[C@H]1OCc2cn(nn2)CCCC(=O)N([C@H](C)CO)C[C@@H]1C`, the AC50 was > 10 µM (inactive).

`O=C(NC[C@@H]1[C@@H](c2ccccc2)[C@H](CO)N1C(=O)C1CCC1)NC1CCCC1`: the AC50 was > 10 µM (inactive).

In the case of `O=C(NC[C@@H]1[C@@H](c2ccccc2)[C@@H](CO)N1C(=O)C1CCC1)NC1CCCC1`, the AC50 is > 10 µM (inactive).

Turning to `C[C@@H]1CN([C@H](C)CO)C(=O)CCCn2nncc2CO[C@H]1CN(C)C(=O)c1ccc2ccn(C)c2c1`, the AC50 is > 10 µM (inactive).

For `C[C@@H]1CN([C@H](C)CO)C(=O)CCCn2nncc2CO[C@@H]1CN(C)Cc1cccc(C(F)(F)F)c1`, the AC50 was > 10 µM (inactive).

As to `C[C@H](CO)N1C[C@H](C)[C@@H](CN(C)S(=O)(=O)c2ccccc2C#N)OCc2cnnn2CCCC1=O`, the AC50 is > 10 µM (inactive).

Turning to `C[C@H](CO)N1C[C@H](C)[C@@H](CN(C)S(=O)(=O)c2cn(C)cn2)OCc2cnnn2CCCC1=O`, the AC50 is > 10 µM (inactive).

As for `C/C=C/c1ccc([C@@H]2[C@@H](CO)N[C@@H]2CN(CC)C(=O)CN2CCOCC2)cc1`, the AC50 was > 10 µM (inactive).

For the compound `O=C(c1cccc(F)c1)N1C[C@H]2[C@@H](c3ccccc31)[C@@H](CO)N2Cc1cocn1`, the AC50 was > 10 µM (inactive).

Consider `C[C@H](CO)N1C[C@H](C)[C@H](CN(C)Cc2ccc(C(=O)Nc3ccccc3N)cc2)OCc2cnnn2CCCC1=O`, for which the AC50 is > 10 µM (inactive).

Turning to `C[C@@H]1CN([C@H](C)CO)C(=O)CCCn2cc(nn2)CO[C@@H]1CN(C)Cc1ccccc1`, the AC50 was > 10 µM (inactive).

With `COc1ccccc1NC(=O)N1C[C@@H]2[C@H](c3ccccc31)[C@H](CO)N2CC1CCOCC1`, the AC50 is > 10 µM (inactive).

Turning to `COCC(=O)N1[C@H](CO)[C@H]2c3ccccc3N(C(=O)Nc3ccccc3Cl)C[C@H]21`, the AC50 was > 10 µM (inactive).

Take `COc1ccc(C(=O)N2C[C@H]3[C@@H](c4ccccc42)[C@H](CO)N3Cc2ccccc2Cl)cc1`: the AC50 was > 10 µM (inactive).

Regarding `CCCN1[C@H](CO)[C@H](c2ccc(C3=CCCC3)cc2)[C@H]1CNC(=O)NC(C)C`, the AC50 was > 10 µM (inactive).

In the case of `CC(C)CNC[C@@H]1[C@@H](c2ccccc2)[C@@H](CO)N1Cc1ccc(F)cc1`, the AC50 is > 10 µM (inactive).

On to `CC(=O)N1[C@H](CO)[C@H]2c3ccccc3N(S(=O)(=O)c3ccccc3C)C[C@H]21`, for which the AC50 is > 10 µM (inactive).

Consider `C[C@@H]1CN([C@H](C)CO)C(=O)CCCn2nncc2CO[C@@H]1CN(C)C(=O)c1ccc(N2CCN(C)CC2)cc1`, for which the AC50 was > 10 µM (inactive).

As to `C[C@H](CO)N1C[C@H](C)[C@H](CN(C)C(=O)CCC(F)(F)F)OCc2cnnn2CCCC1=O`, the AC50 is > 10 µM (inactive).

Consider `O=C(c1ccccc1F)N1C[C@@H]2[C@H](c3ccccc31)[C@H](CO)N2Cc1ccc2c(c1)OCO2`, for which the AC50 is > 10 µM (inactive).

Turning to `COCC(=O)N1[C@@H](CO)[C@@H]2c3ccccc3N(C(=O)Nc3ccccc3Cl)C[C@@H]21`, the AC50 was > 10 µM (inactive).

Take `C[C@@H]1CN([C@@H](C)CO)C(=O)CCCn2nncc2CO[C@H]1CN(C)C(=O)c1ccc2ccn(C)c2c1`: the AC50 is > 10 µM (inactive).

For `C[C@H]1CN([C@@H](C)CO)C(=O)CCCn2nncc2CO[C@@H]1CN(C)C(=O)c1ccc2ccn(C)c2c1`, the AC50 was > 10 µM (inactive).

Consider `COCC(=O)N(C)C[C@@H]1[C@@H](c2ccccc2)[C@H](CO)N1C(=O)Cc1ccncc1`, for which the AC50 is > 10 µM (inactive).

As for `O=C(NC[C@@H]1[C@@H](c2ccccc2)[C@@H](CO)N1C(=O)Cc1ccncc1)C1CCC1`, the AC50 was > 10 µM (inactive).

For the compound `COc1ccccc1CN1[C@@H]2CN(C(=O)C3CCOCC3)c3ccccc3[C@@H]2[C@@H]1CO`, the AC50 is > 10 µM (inactive).

With `C[C@@H]1CN([C@H](C)CO)C(=O)CCCn2nncc2CO[C@H]1CN(C)Cc1cccc2c1OCCCO2`, the AC50 is > 10 µM (inactive).

Turning to `CCCC(=O)N1C[C@H]2[C@@H](c3ccccc31)[C@@H](CO)N2C(=O)Nc1ccc(F)cc1`, the AC50 is > 10 µM (inactive).

As to `CC(=O)N1[C@H](CN(CC(C)C)C(=O)c2ccccn2)[C@@H](c2ccccc2)[C@@H]1CO`, the AC50 was > 10 µM (inactive).

With `COCCNC[C@@H]1[C@@H](c2ccccc2)[C@@H](CO)N1c1nc(C)c(C)s1`, the AC50 was > 10 µM (inactive).

Turning to `CNC[C@H]1OCc2cn(nn2)CCCC(=O)N([C@H](C)CO)C[C@H]1C`, the AC50 was > 10 µM (inactive).

`CC(=O)N1[C@H](CO)[C@H](c2ccccc2)[C@H]1CNC(=O)CN1CCOCC1`: the AC50 was > 10 µM (inactive).

As to `C[C@@H]1CN([C@@H](C)CO)C(=O)CCCn2nncc2CO[C@H]1CN(C)C(=O)NC1CCCC1`, the AC50 was > 10 µM (inactive).

As to `COc1ccccc1C(=O)N1C[C@@H]2[C@H](c3ccccc31)[C@@H](CO)N2C(=O)Cc1ccccc1`, the AC50 was > 10 µM (inactive).

For `O=C(Nc1ccc(Cl)cc1)N1C[C@H]2[C@@H](c3ccccc31)[C@H](CO)N2CC1CCCCC1`, the AC50 is > 10 µM (inactive).

Consider `COCC(=O)N1[C@H](CO)[C@@H]2c3ccccc3NC[C@@H]21`, for which the AC50 was > 10 µM (inactive).

`C[C@H]1CN([C@@H](C)CO)C(=O)CCCn2nncc2CO[C@@H]1CN(C)Cc1ccc(C(=O)Nc2ccccc2N)cc1`: the AC50 is > 10 µM (inactive).

Regarding `O=C(CC(F)(F)F)N1C[C@H]2[C@@H](c3ccccc31)[C@H](CO)N2CC1CCOCC1`, the AC50 was > 10 µM (inactive).

On to `CN(C[C@H]1N[C@@H](CO)[C@@H]1c1ccccc1)C(=O)c1ccccn1`, for which the AC50 is > 10 µM (inactive).

On to `CN1C[C@@H]2[C@H](c3ccccc31)[C@@H](CO)N2S(=O)(=O)c1ccccc1`, for which the AC50 was > 10 µM (inactive).

With `O=C(c1ccccn1)N1C[C@H]2[C@@H](c3ccccc31)[C@H](CO)N2C(=O)C1CCCCC1`, the AC50 was > 10 µM (inactive).

In the case of `O=S(=O)(NC[C@@H]1[C@H](c2ccccc2)[C@H](CO)N1CC1CC1)c1ccccc1`, the AC50 was > 10 µM (inactive).

Turning to `CCCNC(=O)N1C[C@H]2[C@@H](c3ccccc31)[C@@H](CO)N2C(=O)Nc1ccccc1F`, the AC50 was > 10 µM (inactive).

For the compound `Cc1ccc(S(=O)(=O)N2C[C@@H]3[C@H](c4ccccc42)[C@H](CO)N3Cc2cccnc2)cc1`, the AC50 is > 10 µM (inactive).

As to `COc1ccc(C(=O)N2C[C@@H]3[C@H](c4ccccc42)[C@H](CO)N3C(=O)NC(C)C)cc1`, the AC50 is > 10 µM (inactive).

As for `COc1ccc(NC(=O)N(C)C[C@H]2OCc3cnnn3CCCC(=O)N([C@H](C)CO)C[C@@H]2C)c(OC)c1`, the AC50 is > 10 µM (inactive).

Take `C[C@H](CO)N1C[C@H](C)[C@@H](CN(C)C(=O)Nc2ccc3c(c2)OCCO3)OCc2cnnn2CCCC1=O`: the AC50 is > 10 µM (inactive).

`O=C(Nc1ccc(F)cc1)N1[C@@H](CO)[C@@H]2c3ccccc3NC[C@@H]21`: the AC50 is > 10 µM (inactive).

Turning to `CN1C[C@@H]2[C@H](c3ccccc31)[C@@H](CO)N2C(=O)C1CCOCC1`, the AC50 was > 10 µM (inactive).
